Where “and” joins values, the source holds several entries; their conditions need not be identical. Equal entries are not always repeated. Inconclusive results and toxic doses are left out.
System: BDF1 mice, P388 leukemia ip, median survival T/C
Experiment: NCI In Vivo Anticancer Drug Screen. Data for tumor model P388 Leukemia (intraperitoneal) in B6D2F1 (BDF1) mice
Conditions: endpoint: median survival time, higher = longer survival
In short: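 Vehicle-dosed animals serve as the reference; survival of compound-dosed, tumour-implanted mice is divided by it.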

[1] = dose: 100.0 mg/kg/injection, schedule: Q01DX009 (ip), vehicle: saline with Tween-80
[2] = dose: 100.0 mg/kg/injection, schedule: Q04DX003 (ip), vehicle: saline with Tween-80
[3] = dose: 200.0 mg/kg/injection, schedule: Q04DX003 (ip), vehicle: saline with Tween-80
[4] = dose: 400.0 mg/kg/injection, schedule: Q04DX003 (ip), vehicle: saline with Tween-80

SMILES: COc1ccccc1C1(O)c2ccccc2Sc2cccc(OC)c21 (stereo not given)
- T/C [1]: 104 % of control
- T/C (dose: 200.0 mg/kg/injection, schedule: Q01DX009 (ip), vehicle: saline with Tween-80): 100 % of control
- T/C (dose: 400.0 mg/kg/injection, schedule: Q01DX009 (ip), vehicle: saline with Tween-80): 95 % of control

SMILES: CN(C)CCCN=C1Nc2ccccc2C(=NCCCN(C)C)Nc2ccccc21
- T/C (dose: 12.5 mg/kg/injection, schedule: Q01DX009 (ip), vehicle: saline): 104 % of control
- T/C (dose: 12.5 mg/kg/injection, schedule: Q04DX003 (ip), vehicle: saline): 100 % of control
- T/C (dose: 25.0 mg/kg/injection, schedule: Q01DX009 (ip), vehicle: saline): 95 % of control
- T/C (dose: 25.0 mg/kg/injection, schedule: Q04DX003 (ip), vehicle: saline): 88 % of control
- T/C (dose: 50.0 mg/kg/injection, schedule: Q01DX009 (ip), vehicle: saline): 100 % of control
- T/C (dose: 50.0 mg/kg/injection, schedule: Q04DX003 (ip), vehicle: saline): 111 % of control

SMILES: CC(=O)NNC(=O)c1ccccn1
- T/C (dose: 4.0 mg/kg/injection, schedule: Q03HX024 (ip), vehicle: saline): 100 % of control
- T/C (dose: 8.0 mg/kg/injection, schedule: Q03HX008 (ip), vehicle: saline): 100 % of control
- T/C (dose: 8.0 mg/kg/injection, schedule: Q03HX016 (ip), vehicle: saline): 95 % of control
- T/C (dose: 8.0 mg/kg/injection, schedule: Q03HX024 (ip), vehicle: saline): 90 % of control
- T/C (dose: 16.0 mg/kg/injection, schedule: Q03HX008 (ip), vehicle: saline): 90 % of control
- T/C (dose: 16.0 mg/kg/injection, schedule: Q03HX016 (ip), vehicle: saline): 90 % of control
- T/C (dose: 16.0 mg/kg/injection, schedule: Q03HX024 (ip), vehicle: saline): 100 % of control
- T/C (dose: 19.0 mg/kg/injection, schedule: Q01DX010 (ip), vehicle: water): 95 % of control
- T/C (dose: 32.0 mg/kg/injection, schedule: Q01DX009 (ip), vehicle: saline): 90 % of control
- T/C (dose: 32.0 mg/kg/injection, schedule: Q01DX009 (oral), vehicle: saline): 90 % of control
- T/C (dose: 32.0 mg/kg/injection, schedule: Q03HX008 (ip), vehicle: saline): 95 % of control
- T/C (dose: 32.0 mg/kg/injection, schedule: Q03HX016 (ip), vehicle: saline): 90 % of control
- T/C (dose: 32.0 mg/kg/injection, schedule: Q03HX024 (ip), vehicle: saline): 90 % of control
- T/C (dose: 32.0 mg/kg/injection, schedule: Q04DX003 (ip), vehicle: saline): 90 % of control
- T/C (dose: 38.0 mg/kg/injection, schedule: Q01DX010 (ip), vehicle: water): 100 % of control
- T/C (dose: 50.0 mg/kg/injection, schedule: Q01DX009 (ip), vehicle: water): 113 % of control
- T/C (dose: 50.0 mg/kg/injection, schedule: Q01DX009 (oral), vehicle: water): 109 % of control
- T/C (dose: 64.0 mg/kg/injection, schedule: Q01DX001 (ip), vehicle: saline): 90 % of control
- T/C (dose: 64.0 mg/kg/injection, schedule: Q01DX001 (oral), vehicle: saline): 90 % of control
- T/C (dose: 64.0 mg/kg/injection, schedule: Q01DX009 (ip), vehicle: saline): 90 % of control
- T/C (dose: 64.0 mg/kg/injection, schedule: Q01DX009 (oral), vehicle: saline): 90 % of control
- T/C (dose: 64.0 mg/kg/injection, schedule: Q03HX008 (ip), vehicle: saline): 95 % of control
- T/C (dose: 64.0 mg/kg/injection, schedule: Q03HX016 (ip), vehicle: saline): 90 % of control
- T/C (dose: 64.0 mg/kg/injection, schedule: Q03HX024 (ip), vehicle: saline): 90 % of control
- T/C (dose: 64.0 mg/kg/injection, schedule: Q04DX003 (ip), vehicle: saline): 100 % of control
- T/C (dose: 64.0 mg/kg/injection, schedule: Q08DX002 (ip), vehicle: saline): 90 % of control
- T/C (dose: 75.0 mg/kg/injection, schedule: Q01DX010 (ip), vehicle: water): 100 % of control
- T/C (dose: 100.0 mg/kg/injection, schedule: Q01DX009 (oral), vehicle: water): 109 % of control
- T/C (dose: 128.0 mg/kg/injection, schedule: Q01DX001 (ip), vehicle: saline): 100 % of control
- T/C (dose: 128.0 mg/kg/injection, schedule: Q01DX001 (oral), vehicle: saline): 95 % of control
- T/C (dose: 128.0 mg/kg/injection, schedule: Q01DX009 (ip), vehicle: saline): 95 % of control
- T/C (dose: 128.0 mg/kg/injection, schedule: Q01DX009 (oral), vehicle: saline): 90 % of control
- T/C (dose: 128.0 mg/kg/injection, schedule: Q04DX003 (ip), vehicle: saline): 90 % of control
- T/C (dose: 128.0 mg/kg/injection, schedule: Q08DX002 (ip), vehicle: saline): 90 % of control
- T/C (dose: 256.0 mg/kg/injection, schedule: Q01DX001 (ip), vehicle: saline): 90 % of control
- T/C (dose: 256.0 mg/kg/injection, schedule: Q01DX001 (oral), vehicle: saline): 90 % of control
- T/C (dose: 256.0 mg/kg/injection, schedule: Q04DX003 (ip), vehicle: saline): 95 % of control

SMILES: O=C(NC1=NN(c2ccccc2)C(=O)C1)c1ccccc1
- T/C (dose: 37.5 mg/kg/injection, schedule: Q01DX009 (ip), vehicle: saline with Tween-80): 105 % of control
- T/C (dose: 150.0 mg/kg/injection, schedule: Q01DX009 (ip), vehicle: saline with Tween-80): 96 % of control

SMILES: CC1(C)N=C(N)N=C(N)N1c1ccc(C(=O)CCl)cc1
- T/C (dose: 10.0 mg/kg/injection, schedule: Q01DX009 (ip), vehicle: saline): 108 % of control
- T/C (dose: 20.0 mg/kg/injection, schedule: Q01DX009 (ip), vehicle: saline): 108 % of control
- T/C (dose: 40.0 mg/kg/injection, schedule: Q01DX009 (ip), vehicle: saline): 118 % of control

SMILES: COc1cc(OC)c(N=Cc2ccc3c(c2)OCO3)cc1Cl
- T/C (dose: 100.0 mg/kg/injection, schedule: Q04DX003 (ip), vehicle: Klucel (hydroxypropylcellulose) (HPC)): 100 % of control
- T/C (dose: 200.0 mg/kg/injection, schedule: Q04DX003 (ip), vehicle: Klucel (hydroxypropylcellulose) (HPC)): 100 % of control

SMILES: CCCCCCCCCCCCCCCCCC(=O)[O][Sn]([CH2]CCC)([CH2]CCC)[O]C(=O)CCCCCCCCCCCCCCCCC
- T/C (dose: 12.5 mg/kg/injection, schedule: Q04DX003 (ip), vehicle: other): 121 % of control

SMILES: NC(Cc1ccc(O)cc1)C(=O)OCc1ccccc1 (stereo not given)
- T/C [2]: 104 % of control
- T/C [3]: 104 % of control
- T/C [4]: 100 % of control

SMILES: Cn1ccoc1=NC1CCCCC1
- T/C (dose: 50.0 mg/kg/injection, schedule: Q04DX003 (ip), vehicle: saline with Tween-80): 100 % of control
- T/C [2]: 100 % of control
- T/C [3]: 109 % of control

SMILES: CC(=O)OC1C(OCc2ccccc2)OC(COCc2ccccc2)C(OC2OC(COCc3ccccc3)C(OCc3ccccc3)C(OCc3ccccc3)C2OCc2ccccc2)C1OCc1ccccc1 (stereo not given)
- T/C (dose: 5.31 mg/kg/injection, schedule: Q01DX009 (ip), vehicle: Klucel (hydroxypropylcellulose) (HPC)): 100 % of control and 104 % of control
- T/C (dose: 10.62 mg/kg/injection, schedule: Q01DX009 (ip), vehicle: Klucel (hydroxypropylcellulose) (HPC)): 100 % of control
- T/C (dose: 21.25 mg/kg/injection, schedule: Q01DX009 (ip), vehicle: Klucel (hydroxypropylcellulose) (HPC)): 87 % of control and 100 % of control

SMILES: O=C(O)C(O)C(O)C(=O)O (stereo not given)
- T/C (dose: 100.0 mg/kg/injection, schedule: Q01DX009 (ip), vehicle: saline): 100 % of control
- T/C (dose: 100.0 mg/kg/injection, schedule: Q04DX003 (ip), vehicle: saline): 91 % of control
- T/C (dose: 200.0 mg/kg/injection, schedule: Q01DX009 (ip), vehicle: saline): 110 % of control
- T/C (dose: 200.0 mg/kg/injection, schedule: Q04DX003 (ip), vehicle: saline): 100 % of control
- T/C (dose: 400.0 mg/kg/injection, schedule: Q01DX009 (ip), vehicle: saline): 100 % of control
- T/C (dose: 400.0 mg/kg/injection, schedule: Q04DX003 (ip), vehicle: saline): 104 % of control

SMILES: CC1=NN(c2ccccc2)C(=O)C1C(=S)SC1CC(=O)OC1=O (stereo not given)
- T/C (dose: 50.0 mg/kg/injection, schedule: Q01DX009 (ip), vehicle: saline with Tween-80): 100 % of control
- T/C [1]: 112 % of control

SMILES: CCSc1nc(C=O)c(Cc2ccc(Br)cc2)c(=O)[nH]1
- T/C [2]: 109 % of control
- T/C [3]: 122 % of control
- T/C [4]: 150 % of control

SMILES: Cc1cc[n+]2cc3c(ccc4ccccc43)c(C)c2c1
- T/C (dose: 0.7 mg/kg/injection, schedule: Q01DX010 (ip), vehicle: carboxymethylcellulose (CMC)): 110 % of control
- T/C (dose: 1.5 mg/kg/injection, schedule: Q01DX010 (ip), vehicle: carboxymethylcellulose (CMC)): 100 % of control
- T/C (dose: 3.0 mg/kg/injection, schedule: Q01DX010 (ip), vehicle: carboxymethylcellulose (CMC)): 110 % of control
- T/C (dose: 6.0 mg/kg/injection, schedule: Q01DX010 (ip), vehicle: carboxymethylcellulose (CMC)): 115 % of control
- T/C (dose: 12.5 mg/kg/injection, schedule: Q01DX010 (ip), vehicle: carboxymethylcellulose (CMC)): 110 % of control
- T/C (dose: 25.0 mg/kg/injection, schedule: Q01DX010 (ip), vehicle: carboxymethylcellulose (CMC)): 110 % of control
